Measured values as given in patent US20250230165A1, “HETEROCYCLIC COMPOUNDS FOR USE IN THE TREATMENT OF CANCER” (ARTIOS PHARMA LIMITED, priority 2021, published 2025).

Biological target: T1, Human Polθ polymerase domain (aa1820-2590) (Homo sapiens, UniProt O75417)
T1 construct: Human Polθ polymerase domain (aa1820-2590) was expressed in E. coli; made in house; host or cells: E. coli
T1 sequence (O75417 1820-2590): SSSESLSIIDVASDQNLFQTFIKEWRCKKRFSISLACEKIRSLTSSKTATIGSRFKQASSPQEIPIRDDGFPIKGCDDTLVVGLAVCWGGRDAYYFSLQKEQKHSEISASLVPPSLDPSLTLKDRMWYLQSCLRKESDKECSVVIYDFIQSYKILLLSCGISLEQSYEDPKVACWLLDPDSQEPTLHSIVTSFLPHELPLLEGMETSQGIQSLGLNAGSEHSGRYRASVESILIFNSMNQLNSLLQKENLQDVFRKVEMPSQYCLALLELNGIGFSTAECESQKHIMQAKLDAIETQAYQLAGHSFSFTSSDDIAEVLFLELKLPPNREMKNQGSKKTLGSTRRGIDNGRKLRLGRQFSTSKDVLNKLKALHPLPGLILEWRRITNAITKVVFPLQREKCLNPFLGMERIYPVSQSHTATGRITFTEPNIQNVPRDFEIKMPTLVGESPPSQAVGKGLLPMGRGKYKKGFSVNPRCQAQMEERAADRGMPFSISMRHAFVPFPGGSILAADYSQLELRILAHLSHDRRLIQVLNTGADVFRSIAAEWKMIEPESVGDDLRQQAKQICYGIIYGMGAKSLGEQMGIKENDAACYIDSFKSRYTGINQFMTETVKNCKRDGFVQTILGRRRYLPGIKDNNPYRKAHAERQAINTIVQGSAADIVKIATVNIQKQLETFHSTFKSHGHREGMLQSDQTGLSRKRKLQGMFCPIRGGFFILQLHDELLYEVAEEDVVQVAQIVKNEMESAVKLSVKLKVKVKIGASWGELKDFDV
Test: Polθ Polymerase Domain Kinact/KI Assay (PicoGreen)
Type: biochemical
Details: 0.8 nM Polθ, 100 nM DNA substrate, kobs vs [I] fit for 2-step covalent inhibitor
How it was run: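 Kinact and KI derive from fitting kobs versus [I], where kobs were fitted from EDTA-stopped PicoGreen time courses (up to 60 min) in Tris pH 7.5 buffer with 1% DMSO, 0.8 nM enzyme, 100 nM DNA and […].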

| Compound | Kinact/Kl |
| --- | --- |
| C=CC(=O)N1C[C@@H]2CN(CCN3C[C@H]4CC(=O)N(c5cc(C(F)(F)F)cc(C)n5)[C@@H]4C(=O)N(C)c4cccc(F)c43)CCN2[C@H](C)C1 [Example 63a, (3aR,11aS)-5-(2-((6R/S,9aS/R)-8-acryloyl-6-methyloctahydro-2H-pyrazino[1,2-a]pyrazin-2-yl)ethyl)-6-fluoro-10-methyl-1-(6-methyl-4-(trifluoromethyl)pyridin-2-yl)-1,3a,4,5,10,11a-hexahydro-2H-benzo[b]pyrrolo[2,3-f][1,4]diazocine-2,11(3H)-dione] | 3.1e+06 M⁻¹ s⁻¹ |
| C=CC(=O)N1C[C@H]2CN(CCN3C[C@H]4CC(=O)N(c5cc(C(F)(F)F)cc(C)n5)[C@@H]4C(=O)N(C)c4cccc(F)c43)CCN2[C@@H](C)C1 [Example 63b, (3aR,11aS)-5-(2-((6S/R,9aR/S)-8-acryloyl-6-methyloctahydro-2H-pyrazino[1,2-a]pyrazin-2-yl)ethyl)-6-fluoro-10-methyl-1-(6-methyl-4-(trifluoromethyl)pyridin-2-yl)-1,3a,4,5,10,11a-hexahydro-2H-benzo[b]pyrrolo[2,3-f][1,4]diazocine-2,11(3H)-dione] | 190000 M⁻¹ s⁻¹ |
| C=CC(=O)N1CC[C@H](NCCN2C[C@H]3CC(=O)N(c4cc(C(F)(F)F)cc(C)n4)[C@@H]3C(=O)N(C)c3cccc(Cl)c32)[C@H](F)C1 [Example 66, (3aR,11aS)-5-(2-(((3R,4S)-1-acryloyl-3-fluoropiperidin-4-yl)amino)ethyl)-6-chloro-10-methyl-1-(6-methyl-4-(trifluoromethyl)pyridin-2-yl)-1,3a,4,5,10,11a-hexahydro-2H-benzo[b]pyrrolo[2,3-f][1,4]diazocine-2,11(3H)-dione] | 2.11e+06 M⁻¹ s⁻¹ |
| C=CC(=O)N1CC(NCCCN2C[C@H]3CC(=O)N(c4cc(C(F)(F)F)cc(C)n4)[C@@H]3C(=O)N(C)c3cccc(F)c32)C1 [Example 70, (3aR,11aS)-5-(3-((1-acryloylazetidin-3-yl)amino)propyl)-6-fluoro-10-methyl-1-(6-methyl-4-(trifluoromethyl)pyridin-2-yl)-1,3a,4,5,10,11a-hexahydro-2H-benzo[b]pyrrolo[2,3-f][1,4]diazocine-2,11(3H)-dione] | 970000 M⁻¹ s⁻¹ |
| C=CC(=O)N1CC(N(C)CCCN2C[C@H]3CC(=O)N(c4cc(C(F)(F)F)cc(C)n4)[C@@H]3C(=O)N(C)c3cccc(F)c32)C1 [Example 71, (3aR,11aS)-5-(3-((1-acryloylazetidin-3-yl)(methyl)amino)propyl)-6-fluoro-10-methyl-1-(6-methyl-4-(trifluoromethyl)pyridin-2-yl)-1,3a,4,5,10,11a-hexahydro-2H-benzo[b]pyrrolo[2,3-f][1,4]diazocine-2,11(3H)-dione] | 420000 M⁻¹ s⁻¹ |
| C=CC(=O)N1CCn2c(nc(CN3C[C@H]4CC(=O)N(c5cc(C(F)(F)F)cc(C)n5)[C@@H]4C(=O)N(C)c4cccc(C)c43)c2C)C1 [Example 74, (3aR,11aS)-5-((7-acryloyl-3-methyl-5,6,7,8-tetrahydroimidazo[1,2-a]pyrazin-2-yl)methyl)-6,10-dimethyl-1-(6-methyl-4-(trifluoromethyl)pyridin-2-yl)-1,3a,4,5,10,11a-hexahydro-2H-benzo[b]pyrrolo[2,3-f][1,4]diazocine-2,11(3H)-dione] | 5.83e+06 M⁻¹ s⁻¹ |
| C=CC(=O)N1CC(N2CCN(C(=O)CN3C[C@H]4CC(=O)N(c5cc(C(F)(F)F)cc(C)n5)[C@@H]4C(=O)N(C)c4cccc(Cl)c43)CC2)C1 [Example 75, (3aR,11aS)-5-(2-(4-(1-acryloylazetidin-3-yl)piperazin-1-yl)-2-oxoethyl)-6-chloro-10-methyl-1-(6-methyl-4-(trifluoromethyl)pyridin-2-yl)-1,3a,4,5,10,11a-hexahydro-2H-benzo[b]pyrrolo[2,3-f][1,4]diazocine-2,11(3H)-dione] | 1.32e+06 M⁻¹ s⁻¹ |
| C=C(COC(C)=O)C(=O)N1CC(OCCCN2C[C@H]3CC(=O)N(c4cc(C(F)(F)F)cc(C)n4)[C@@H]3C(=O)N(C)c3cccc(Cl)c32)C1 [Example 78, 2-(3-(3-((3aR,11aS)-6-chloro-10-methyl-1-(6-methyl-4-(trifluoromethyl)pyridin-2-yl)-2,11-dioxo-1,2,3,3a,4,10,11,11a-octahydro-5H-benzo[b]pyrrolo[2,3-f][1,4]diazocin-5-yl)propoxy)azetidine-1-carbonyl)allyl Acetate] | 2.06e+06 M⁻¹ s⁻¹ |
| C/C=C(\CN(C)C)C(=O)N1CC(OCCCN2C[C@H]3CC(=O)N(c4cc(C(F)(F)F)cc(C)n4)[C@@H]3C(=O)N(C)c3cccc(F)c32)C1 [Example 80, (3aR,11aS)-5-(3-((1-((E)-2-((dimethylamino)methyl)but-2-enoyl)azetidin-3-yl)oxy)propyl)-6-fluoro-10-methyl-1-(6-methyl-4-(trifluoromethyl)pyridin-2-yl)-1,3a,4,5,10,11a-hexahydro-2H-benzo[b]pyrrolo[2,3-f][1,4]diazocine-2,11(3H)-dione] | 810000 M⁻¹ s⁻¹ |
| C=C(CN(C)C)C(=O)N1CC(OCCCN2C[C@H]3CC(=O)N(c4cc(C(F)(F)F)cc(C)n4)[C@@H]3C(=O)N(C)c3ccccc32)C1 [Example 81, (3aR,11aS)-5-(3-((1-(2-((dimethylamino)methyl)acryloyl)azetidin-3-yl)oxy)propyl)-10-methyl-1-(6-methyl-4-(trifluoromethyl)pyridin-2-yl)-1,3a,4,5,10,11a-hexahydro-2H-benzo[b]pyrrolo[2,3-f][1,4]diazocine-2,11(3H)-dione] | 2.03e+06 M⁻¹ s⁻¹ |

Other lines, results leading:

| Kinact/Kl | Compound |
| --- | --- |
| 270000 M⁻¹ s⁻¹ | C=CC(=O)N1C[C@@H]2CN(CCN3C[C@H]4CC(=O)N(c5cc(C(F)(F)F)cc(C)n5)[C@@H]4C(=O)N(C)c4cccc(F)c43)CCN2[C@@H](C)C1 [Example 64b, (3aR,11aS)-5-(2-((6S/R,9aS/R)-8-acryloyl-6-methyloctahydro-2H-pyrazino[1,2-a]pyrazin-2-yl)ethyl)-6-fluoro-10-methyl-1-(6-methyl-4-(trifluoromethyl)pyridin-2-yl)-1,3a,4,5,10,11a-hexahydro-2H-benzo[b]pyrrolo[2,3-f][1,4]diazocine-2,11(3H)-dione] |
| 4.96e+06 M⁻¹ s⁻¹ | C=C(CN(C)C)C(=O)N1CC(C(=O)N(C)CCN2C[C@H]3CC(=O)N(c4cc(C(F)(F)F)cc(C)n4)[C@@H]3C(=O)N(C)c3cccc(Cl)c32)C1 [Example 65, N-(2-((3aR,11aS)-6-chloro-10-methyl-1-(6-methyl-4-(trifluoromethyl)pyridin-2-yl)-2,11-dioxo-1,2,3,3a,4,10,11,11a-octahydro-5H-benzo[b]pyrrolo[2,3-f][1,4]diazocin-5-yl)ethyl)-1-(2-((dimethylamino)methyl)acryloyl)-N-methylazetidine-3-carboxamide] |
| 2.32e+06 M⁻¹ s⁻¹ | C=CC(=O)N1CC[C@H](N(C)CCN2C[C@H]3CC(=O)N(c4cc(C(F)(F)F)cc(C)n4)[C@@H]3C(=O)N(C)c3cccc(Cl)c32)[C@H](F)C1 [Example 67, (3aR,11aS)-5-(2-(((3R,4S)-1-acryloyl-3-fluoropiperidin-4-yl)(methyl)amino)ethyl)-6-chloro-10-methyl-1-(6-methyl-4-(trifluoromethyl)pyridin-2-yl)-1,3a,4,5,10,11a-hexahydro-2H-benzo[b]pyrrolo[2,3-f][1,4]diazocine-2,11(3H)-dione] |
| 2.36e+06 M⁻¹ s⁻¹ | C=CC(=O)N1CC(C)(N2CCN(CCN3C[C@H]4CC(=O)N(c5cc(C(F)(F)F)cc(C)n5)[C@@H]4C(=O)N(C)c4cccc(C)c43)CC2)C1 [Example 72, (3aR,11aS)-5-(2-(4-(1-acryloyl-3-methylazetidin-3-yl)piperazin-1-yl)ethyl)-6,10-dimethyl-1-(6-methyl-4-(trifluoromethyl)pyridin-2-yl)-1,3a,4,5,10,11a-hexahydro-2H-benzo[b]pyrrolo[2,3-f][1,4]diazocine-2,11(3H)-dione] |
| 2.55e+06 M⁻¹ s⁻¹ | C=C(CN(C)C)C(=O)N1CC(OCCCN2C[C@H]3CC(=O)N(c4cc(C(F)(F)F)cc(C)n4)[C@@H]3C(=O)N(C)c3cccc(C)c32)C1 [Example 77, (3aR,11aS)-5-(3-((1-(2-((dimethylamino)methyl)acryloyl)azetidin-3-yl)oxy)propyl)-6,10-dimethyl-1-(6-methyl-4-(trifluoromethyl)pyridin-2-yl)-1,3a,4,5,10,11a-hexahydro-2H-benzo[b]pyrrolo[2,3-f][1,4]diazocine-2,11(3H)-dione] |
| 1.46e+06 M⁻¹ s⁻¹ | Cc1cc(C(F)(F)F)cc(N2C(=O)C[C@@H]3CN(CCCOC4CN(C(=O)/C(Cl)=C/CN(C)C)C4)c4c(F)cccc4N(C)C(=O)[C@H]32)n1 [Example 79, (3aR,11aS)-5-(3-((1-((Z)-2-chloro-4-(dimethylamino)but-2-enoyl)azetidin-3-yl)oxy)propyl)-6-fluoro-10-methyl-1-(6-methyl-4-(trifluoromethyl)pyridin-2-yl)-1,3a,4,5,10,11a-hexahydro-2H-benzo[b]pyrrolo[2,3-f][1,4]diazocine-2,11(3H)-dione] |
